The results in this text go back to patent publication US7358359B2, “Antibacterial agents” (University of Washington, priority 2003, dated 2008).

The target in one assay is T1, P. aeruginosa LpxC (Pseudomonas aeruginosa, UniProt P47205).
T1 sequence (P47205 1-303): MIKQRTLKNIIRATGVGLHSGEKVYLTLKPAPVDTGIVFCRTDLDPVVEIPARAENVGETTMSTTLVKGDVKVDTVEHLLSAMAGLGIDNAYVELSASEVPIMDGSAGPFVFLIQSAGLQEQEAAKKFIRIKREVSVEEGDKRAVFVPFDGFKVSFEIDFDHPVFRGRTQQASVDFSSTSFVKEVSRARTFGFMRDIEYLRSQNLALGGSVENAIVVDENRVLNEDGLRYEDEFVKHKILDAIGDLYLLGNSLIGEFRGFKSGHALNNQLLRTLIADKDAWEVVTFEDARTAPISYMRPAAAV
Briefly: P. aeruginosa LpxC Inhibition Assay. It counts as biochemical. The protocol: The assay followed the general method of Hyland et al (Journal of Bacteriology 1997 179, 2029-2037: Cloning, expression and purification of UDP-3-O-acyl-GlcNAc deacetylase from Pseudomonas aeruginosa: a metalloamidase of the lipid A biosynthesis pathway) and the radiolabeling procedure is according to Kline et al. supra. Briefly, samples were incubated with 2 nM P. aeruginosa LpxC and 150 nM [3H-Ac]-UDP-3-OR-3-hydroxydecanoyl)-GlcNAc in a total volume of 50 uL for 90 min at room temperature. Reactions were carried out in 96-well polypropylene plates in 50 mM sodium phosphate buffer, pH 7.5, containing 1 mg/mL BSA. Reactions were stopped by the addition of 180 uL of a 3% suspension of activated charcoal powder in 100 mM sodium acetate, pH 7.5. Supernatants were clarified by centrifugation. A portion of the clarified supernatant, containing the enzymatically released [3H]-acetate, was transferred to opaque white 96-well plates containing scintillation fluid. The radioactivity was measured in a Perkin-Elmer/Wallac Trilux Microbeta counter.

The subject of another assay is E. coli 25922. Briefly: MIC broth microdilution, standard panel: E. coli 25922. It counts as cell-based. The following applies: Escherichia coli, standard panel of organisms. The method, then: (§1) Bacterial isolates were cultivated from −70° C. frozen stocks by two consecutive overnight passages at 35° C. in ambient air on 5% blood agar (Remel, Lenexa, Kans.). Clinical isolates tested were from a collection composed of isolates collected during clinical trials and recent clinical isolates obtained from various geographically diverse hospitals in the US. Quality control and primary panel strains were from the American Type Culture Collection (ATCC; Rockville, Md.), with the exception of P. aeruginosa PAO200, a strain with a deletion of the mexABoprM genes that was received from Dr. H. Schweizer. […] Strain Z61 (ATCC 35151) is also hypersusceptible to antibacterials. It is thought that the hypersusceptibility of this strain is the result of increased permeability of its outer membrane (Angus B L et al, Antimicrobial Agents and Chemotherapy 1982 21,299-309: Outer membrane permeability in Pseudomonas aeruginosa: Comparison of a wild-type with an antibacterial-supersusceptible mutant).
(§2) Minimum Inhibitory Concentrations (MICs) were determined by the broth microdilution method in accordance with the National Committee for Clinical Laboratory Standards (NCCLS) guidelines. In brief, organism suspensions were are adjusted to a 0.5 McFarland standard to yield a final inoculum between 3×10^5 and 7×10^5 colony-forming units (CFU)/mL. Drug dilutions and inocula were made in sterile, cation adjusted Mueller-Hinton Broth (Remel). An inoculum volume of 100 μl was added to wells containing 100 μl of broth with 2-fold serial dilutions of drug. All inoculated microdilution trays were incubated in ambient air at 35° C. for 18-24 hours. Following incubation, the lowest concentration of the drug that prevented visible growth was recorded as the MIC. Performance of the assay was monitored by the use of laboratory quality-control strains against tobramycin, that has a defined MIC spectrum, in accordance with NCCLS guidelines.

The test system of the next assay is S. aureus 29213. Briefly: MIC broth microdilution, standard panel: S. aureus 29213. It counts as cell-based. The following applies: Staphylococcus aureus, standard panel of organisms. The method, then: as §1, §2
(In general: In broth dilution the organism is exposed to a series of concentrations in liquid medium.)

In assay [1] the test system is P. aeruginosa PAO200 mexAB. Briefly: MIC broth microdilution, standard panel: P. aeruginosa PAO200 mexAB. It counts as cell-based. The following applies: Pseudomonas aeruginosa, PAO200MEXAB, read-out: MIC P. aeruginosa PAO200 mexAB. The method, then:
as §1, §2

For assay [2], the system named is Pseudomonas aeruginosa cystic fibrosis isolate 3198. Put plainly: MIC vs cystic fibrosis isolate of P. aeruginosa 3198 (sensitive to most antibacterials). The assay is classed as cell-based. The following applies: strain 3198, Sensitive, LpxC inhibitors, MIC key class. Put shortly: (§3)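 Organisms revived from frozen stocks were tested by NCCLS broth microdilution against 2-fold drug series in cation-adjusted Mueller-Hinton broth. Plates held 35° C. for 18-24 hours; lowest concentration preventing visible growth recorded as MIC.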

Assay [3] relates to Pseudomonas aeruginosa cystic fibrosis isolate 2196. Put plainly: MIC vs cystic fibrosis isolate of P. aeruginosa 2196 (resistant to ciprofloxacin). It counts as cell-based. Conditions: strain 2196, Cipro R, LpxC inhibitors, MIC key class. Put shortly:
as §3

Assay [4] deals with Pseudomonas aeruginosa cystic fibrosis isolate 3224. Briefly: MIC vs cystic fibrosis isolate of P. aeruginosa 3224. The assay is classed as cell-based. Conditions: strain 3224, Tobra R, LpxC inhibitors, MIC key class. Put shortly:
as §3

Assay [5] has as its system Pseudomonas aeruginosa cystic fibrosis isolate 3317. Briefly: MIC vs cystic fibrosis isolate of P. aeruginosa 3317 (resistant to aztreonam). The assay is classed as cell-based. Conditions: strain 3317, Aztr. R, LpxC inhibitors, MIC key class. The gist of the method: as §3
Assay [6] relates to non-CF clinical isolates of P. aeruginosa. Briefly: MIC vs non-CF clinical isolates of P. aeruginosa. It counts as cell-based. Conditions: Pseudomonas aeruginosa, MIC key class. Put shortly:
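Clinical isolates from trials and US hospitals were tested by broth microdilution in cation-adjusted Mueller-Hinton broth. Lowest concentration without visible growth after overnight (18-24 h) incubation at 35° C. defined the MIC.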

The subject of a further assay is Alcaligenes xylosoxidans. Briefly: MIC vs non-fermenting organisms: Alcaligenes xylosoxidans. The assay is classed as cell-based. The following applies: Achromobacter xylosoxidans; Alcal. xyl; MIC key class. Put shortly: as §3
In the next assay the test system is Burkholderia cepacia. Put plainly: MIC vs non-fermenting organisms: Burkholderia cepacia. The assay is classed as cell-based. Conditions: Burkholderia cepacia, B. cepacia; MIC key class; read-out: MIC. The gist of the method:
as §3

The test system of the next assay is Enterobacter cloacae. Put plainly: MIC vs enteric organisms: Enterobacter cloacae. It counts as cell-based. Conditions: E. clo., MIC key class. Put shortly: as §3
The subject of another assay is Serratia marcescens. Put plainly: MIC vs enteric organisms: Serratia marcescens. It counts as cell-based. Conditions: S. marc., MIC key class. The gist of the method: as §3
In assay [7] the test system is Pseudomonas aeruginosa cystic fibrosis isolate 3232. Put plainly: MIC vs cystic fibrosis isolate of P. aeruginosa 3232 (Ceftaz. R). The assay is classed as cell-based. Conditions: strain 3232, Ceftaz. R, LpxC inhibitors, MIC key class.
Setting [8] is: 2 nM P. aeruginosa LpxC, 90 min, room temperature, read-out: IC50 (nM), Enzyme inhibitory activity.

Converted amounts (≈) assume the structure as drawn. Read-outs that look alike come from different tables or passages of the source.

What is called IC50 is the point on the concentration scale where inhibition reaches its midpoint. By MIC is commonly meant the lowest concentration found to suppress growth. `NC[C@H](NC(=O)c1ccc(C#Cc2ccc(NC(=O)CNC3CC3)cc2)cc1)C(=O)NO` [Example 516, N-[(1S)-1-(aminomethyl)-2-(hydroxyamino)-2-oxoethyl]-4-[(4-{[(cyclopropylamino)acetyl]amino}phenyl)ethynyl]benzamide]: on P. aeruginosa LpxC (setting [8]), the IC50 is less than 100 nM. Further, the MIC with E. coli 25922 is less than 6.25 µg/mL; against S. aureus 29213, more than 50 µg/mL; in [1], less than 6.25 µg/mL; in [2], less than 6.25 µg/mL; in [3], less than 6.25 µg/mL; in assay [4], less than 6.25 µg/mL. For the same molecule, the MIC in assay [5] is less than 6.25 µg/mL; in assay [6] (P. aer 12307), less than 6.25 µg/mL; in assay [6] (P. aer 27853) it was less than 6.25 µg/mL; in assay [6] (P. aer psa-6b), less than 6.25 µg/mL; against Alcaligenes xylosoxidans it was more than 50 µg/mL; in the assay on Burkholderia cepacia, more than 50 µg/mL. Also, the MIC was 6.25 to 50 µg/mL (≈ 14.4 to 115 µM) in the assay with Enterobacter cloacae, less than 6.25 µg/mL against Serratia marcescens and less than 6.25 µg/mL in assay [7].
On to `C[C@@H](O)[C@H](NC(=O)c1ccc(-c2ccc(Br)cc2)cc1)C(=O)NO` [Example 315, 4′-bromo-N-{(1S,2R)-2-hydroxy-1-[(hydroxyamino)carbonyl]propyl}-1,1′-biphenyl-4-carboxamide], for which the IC50 on P. aeruginosa LpxC (setting [8]) is less than 100 nM. Also, the MIC was less than 6.25 µg/mL with E. coli 25922; more than 50 µg/mL in the assay on S. aureus 29213; less than 6.25 µg/mL in assay [1]; less than 6.25 µg/mL in [2]; less than 6.25 µg/mL in assay [3]; less than 6.25 µg/mL in assay [4]. Moreover, the MIC in [5] is less than 6.25 µg/mL; in assay [6] (P. aer 12307) it was less than 6.25 µg/mL; in assay [6] (P. aer 27853), less than 6.25 µg/mL; in [6] (P. aer psa-6b), less than 6.25 µg/mL; in assay [6] (PAO1, P. aer. PAO1), less than 6.25 µg/mL; with Alcaligenes xylosoxidans, 6.25 to 50 µg/mL (≈ 15.9 to 127 µM). Also, the MIC is less than 6.25 µg/mL with Burkholderia cepacia, less than 6.25 µg/mL in the assay on Enterobacter cloacae, 6.25 to 50 µg/mL (≈ 15.9 to 127 µM) against Serratia marcescens and less than 6.25 µg/mL in assay [7].
With `C[C@@H](O)[C@H](NC(=O)c1ccc(C#Cc2ccccc2)cc1)C(=O)NO` [Example 12, N-(1-(N-hydroxycarbamoyl)(1S,2R)-2-hydroxypropyl)[4-(2-phenylethynyl)phenyl]carboxamide], the IC50 against P. aeruginosa LpxC is less than 100 nM. Also, the MIC against E. coli 25922 is less than 6.25 µg/mL; with S. aureus 29213, more than 50 µg/mL; in assay [1] it was less than 6.25 µg/mL; in [2] it was less than 6.25 µg/mL; in assay [3], 6.25 to 50 µg/mL (≈ 18.5 to 148 µM); in assay [4], less than 6.25 µg/mL. Further, the MIC in assay [5] is less than 6.25 µg/mL; in [6] (P. aer 12307), less than 6.25 µg/mL; in [6] (P. aer 27853), less than 6.25 µg/mL; in assay [6] (P. aer psa-6b) it was less than 6.25 µg/mL; in assay [6] (PAO1, P. aer. PAO1) it was less than 6.25 µg/mL; in the assay with Alcaligenes xylosoxidans, less than 6.25 µg/mL. Besides, the MIC with Burkholderia cepacia was 6.25 to 50 µg/mL (≈ 18.5 to 148 µM); in the assay on Enterobacter cloacae, less than 6.25 µg/mL; against Serratia marcescens, less than 6.25 µg/mL; in assay [7], less than 6.25 µg/mL.
In the case of `C[C@@H](O)[C@H](NC(=O)c1ccc(C#CC#Cc2ccc(NC(=O)CNc3ccccc3)cc2)cc1)C(=O)NO` [Example 777, N-{(1S,2R)-2-hydroxy-1-[(hydroxyamino)carbonyl]propyl}-4-[4-(4-{[(phenylamino)acetyl]amino}phenyl)buta-1,3-diynyl]benzamide], the IC50 at P. aeruginosa LpxC (setting [8]) is less than 100 nM. Further, the MIC against E. coli 25922 is less than 6.25 µg/mL; in the assay on S. aureus 29213 it was more than 50 µg/mL; in assay [1] it was less than 6.25 µg/mL; in assay [2], less than 6.25 µg/mL; in [3], less than 6.25 µg/mL; in [4] it was less than 6.25 µg/mL. In addition, the MIC in [5] is less than 6.25 µg/mL; in assay [6] (P. aer 12307) it was less than 6.25 µg/mL; in assay [6] (P. aer 27853) it was less than 6.25 µg/mL; in [6] (P. aer psa-6b) it was 6.25 to 50 µg/mL (≈ 12.2 to 97.9 µM); against Alcaligenes xylosoxidans it was 6.25 to 50 µg/mL (≈ 12.2 to 97.9 µM); with Burkholderia cepacia it was less than 6.25 µg/mL. The MIC (against Enterobacter cloacae; with Serratia marcescens; in assay [7]) was less than 6.25 µg/mL in each case.
